smiles,measurement,setting,value
C=C[C@]1(C)C[C@@H](OC(=O)CSCCN(CC)CC)[C@]2(C)[C@H](C)CC[C@]3(CCC(=O)[C@H]32)[C@@H](C)[C@@H]1O.O=C(O)/C=C/C(=O)O,solubility (mole fraction),"in MIBK, 283.15 K",0.000867
same,solubility (mole fraction),"in MIBK, 293.15 K",0.00108
same,solubility (mole fraction),"in MIBK, 303.15 K",0.00134
same,solubility (mole fraction),"in MIBK, 313.15 K",0.00191
same,solubility (mole fraction),"in MIBK, 323.15 K",0.00254
same,solubility (mole fraction),"in acetone, 283.15 K",0.00132
same,solubility (mole fraction),"in acetone, 293.15 K",0.00257
same,solubility (mole fraction),"in acetone, 303.15 K",0.00377
same,solubility (mole fraction),"in acetone, 313.15 K",0.00574
same,solubility (mole fraction),"in acetone, 323.15 K",0.00861
same,solubility (mole fraction),"in acetonitrile, 283.15 K",8.33e-05
same,solubility (mole fraction),"in acetonitrile, 293.15 K",0.00016
same,solubility (mole fraction),"in acetonitrile, 303.15 K",0.000235
same,solubility (mole fraction),"in acetonitrile, 313.15 K",0.000495
same,solubility (mole fraction),"in acetonitrile, 323.15 K",0.000993
same,solubility (mole fraction),"in ethyl acetate, 283.15 K",0.000525
same,solubility (mole fraction),"in ethyl acetate, 293.15 K",0.000719
same,solubility (mole fraction),"in ethyl acetate, 303.15 K",0.00102
same,solubility (mole fraction),"in ethyl acetate, 313.15 K",0.00147
same,solubility (mole fraction),"in ethyl acetate, 323.15 K",0.00215
same,solubility (mole fraction),"in isobutyl acetate, 283.15 K",0.000437
same,solubility (mole fraction),"in isobutyl acetate, 293.15 K",0.000574
same,solubility (mole fraction),"in isobutyl acetate, 303.15 K",0.000744
same,solubility (mole fraction),"in isobutyl acetate, 313.15 K",0.00103
same,solubility (mole fraction),"in isobutyl acetate, 323.15 K",0.00143
same,solubility (mole fraction),"in isopropanol, 283.15 K",0.00103
same,solubility (mole fraction),"in isopropanol, 293.15 K",0.00124
same,solubility (mole fraction),"in isopropanol, 303.15 K",0.00173
same,solubility (mole fraction),"in isopropanol, 313.15 K",0.00288
same,solubility (mole fraction),"in isopropanol, 323.15 K",0.00466
same,solubility (mole fraction),"in isopropyl acetate, 283.15 K",0.00044
same,solubility (mole fraction),"in isopropyl acetate, 293.15 K",0.00061
same,solubility (mole fraction),"in isopropyl acetate, 303.15 K",0.000823
same,solubility (mole fraction),"in isopropyl acetate, 313.15 K",0.00118
same,solubility (mole fraction),"in isopropyl acetate, 323.15 K",0.00163
same,solubility (mole fraction),"in methyl acetate, 283.15 K",0.000372
same,solubility (mole fraction),"in methyl acetate, 293.15 K",0.000443
same,solubility (mole fraction),"in methyl acetate, 303.15 K",0.000624
same,solubility (mole fraction),"in methyl acetate, 313.15 K",0.000964
same,solubility (mole fraction),"in methyl acetate, 323.15 K",0.00142
same,solubility (mole fraction),"in n-butanol, 283.15 K",0.00276
same,solubility (mole fraction),"in n-butanol, 293.15 K",0.00458
same,solubility (mole fraction),"in n-butanol, 303.15 K",0.00596
same,solubility (mole fraction),"in n-butanol, 313.15 K",0.00962
same,solubility (mole fraction),"in n-butanol, 323.15 K",0.0173
same,solubility (mole fraction),"in n-butyl acetate, 283.15 K",0.000517
same,solubility (mole fraction),"in n-butyl acetate, 293.15 K",0.000712
same,solubility (mole fraction),"in n-butyl acetate, 303.15 K",0.001
same,solubility (mole fraction),"in n-butyl acetate, 313.15 K",0.0013
same,solubility (mole fraction),"in n-butyl acetate, 323.15 K",0.00168
same,solubility (mole fraction),"in toluene, 283.15 K",5.73e-05
same,solubility (mole fraction),"in toluene, 293.15 K",9.62e-05
same,solubility (mole fraction),"in toluene, 303.15 K",0.000174
same,solubility (mole fraction),"in toluene, 313.15 K",0.000274
same,solubility (mole fraction),"in toluene, 323.15 K",0.000537

# From BigSolDB 2.1
